Measured values taken from patent publication US8008506B2, “Indazole compounds” (priority 2008, dated 2011).
Like-named read-outs stand apart in the source and are kept apart here.

Experiments:
[1] = molecular target: T1, human β3 adrenergic receptor (Homo sapiens, UniProt P13945); test: Test Example 1-B: human β3 adrenergic receptor agonist activity (cAMP-Screen kit, transfected CHO cells, 96-well); assay type: cell-based; conditions: for Emax: CHO, read-out: β3 receptor I.A.; for EC50: Table 2, Test Example 1-B
T1 construct: the full length human β3 gene is obtained from a human genomic library; expressed in transfected cells; host or cells: CHO (Chinese Hamster Ovary) cells, pcDNA3, geneticin selection
T1 sequence (P13945 whole entry): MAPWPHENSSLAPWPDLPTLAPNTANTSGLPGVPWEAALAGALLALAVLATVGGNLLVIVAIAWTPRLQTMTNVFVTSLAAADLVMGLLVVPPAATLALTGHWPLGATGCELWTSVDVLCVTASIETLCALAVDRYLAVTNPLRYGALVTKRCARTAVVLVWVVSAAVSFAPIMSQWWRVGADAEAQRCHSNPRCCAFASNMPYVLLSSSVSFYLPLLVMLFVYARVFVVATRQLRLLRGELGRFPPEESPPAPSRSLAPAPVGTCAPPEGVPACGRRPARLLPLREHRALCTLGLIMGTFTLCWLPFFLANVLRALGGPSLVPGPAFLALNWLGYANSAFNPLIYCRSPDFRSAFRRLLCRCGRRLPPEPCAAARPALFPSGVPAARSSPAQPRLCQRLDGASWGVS
Method: Measurement of Human β3 Adrenergic Receptor Agonist Activity
The measurement of human β3 adrenergic receptor agonist activity is carried out using CHO (Chinese Hamster Ovary) cells transfected with pcDNA3 (manufactured by Invitrogen, Inc.) to which human β3 gene has been inserted. […] This human β3 cDNA fragment is used as a probe, and the full length human β3 gene is obtained from a human genomic library (manufactured by Clontech Laboratories, Inc.). The above cells are cultured in Ham's F-12 medium containing 10% fetal bovine serum and 400 μg/ml geneticin (manufactured by Invitrogen, Inc.). These cells are seeded on a 96-well plate to a concentration of 2×10^4 cells/well, and after being cultured for about 20 hours, the cells are left to stand in 80 μL of serum-free Ham's F-12 medium for 15 minutes. A test compound is initially dissolved in DMSO, and then is diluted stepwise with Ham's F-12 containing 100 mmol/L HEPES and 1 mmol/L isobutylmethylxanthine. 20 μL of the dilution is added to the cells. After the cells are cultured for 30 minutes, the medium is removed. 0.3. ml of the Assay/lysis Buffer included in cAMP-Screen kit (manufactured by Applied Biosystems, Inc.) is added to the cells, and the cells are incubated at 37° C. for 30 minutes. The resulting cell lysate is subjected to quantification of cAMP with the cAMP-Screen kit.

[2] = molecular target: T2, human α1A adrenergic receptor (Homo sapiens, UniProt P35348); test: Test Example 4: human α1A adrenergic receptor agonist activity (Ca flux, Fura-2, transfected HEK293 cells); assay type: cell-based; conditions: for Emax: HEK293, read-out: α1A receptor I.A.; for α1A receptor I.A.: maximum response to norepinephrine taken as 100%
T2 construct: expressed in transfected cells; host or cells: HEK293 cells, pcDNA3.1(−), hygromycin B selection
T2 sequence (P35348 1-466): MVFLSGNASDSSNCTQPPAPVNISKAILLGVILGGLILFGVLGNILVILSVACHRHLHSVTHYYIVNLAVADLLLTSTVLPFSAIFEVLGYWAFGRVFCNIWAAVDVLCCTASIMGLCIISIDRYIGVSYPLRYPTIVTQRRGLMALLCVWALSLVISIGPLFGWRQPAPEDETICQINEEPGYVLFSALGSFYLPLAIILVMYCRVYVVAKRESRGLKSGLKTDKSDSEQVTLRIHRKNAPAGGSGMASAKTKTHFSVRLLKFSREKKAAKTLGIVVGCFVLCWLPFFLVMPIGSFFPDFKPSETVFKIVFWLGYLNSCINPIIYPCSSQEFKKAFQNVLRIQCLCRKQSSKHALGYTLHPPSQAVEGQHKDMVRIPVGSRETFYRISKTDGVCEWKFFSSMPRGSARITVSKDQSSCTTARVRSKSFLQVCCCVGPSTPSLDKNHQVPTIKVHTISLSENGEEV
Method: Measurement of Human α1A Adrenergic Receptor Agonist Activity
The measurement of human α1A adrenergic receptor agonist activity is carried out using HEK293 cells transfected with pcDNA3.1(−) (manufactured by Invitrogen, Inc.) to which human α1A gene has been inserted. These cells are cultured in DMEM medium containing 10% fetal bovine serum, 400 μg/ml hygromycin B (manufactured by Gibco BRL), 100 U/ml penicillin and 100 μg/ml streptomycin. […] The cells are loaded in a CO2 incubator for 30 minutes, and then are washed twice with the Assay Buffer to remove excess Fura-2AM. The cells are centrifuged, and then are prepared into a solution at 5×10^6 cells/ml with the Assay Buffer. Subsequently, the cells are dispensed on a 96-well plate (manufactured by Corning, Inc.) at a volume of 80 μl/well, and the plate is used as a cell plate. […] Subsequently, measurement of fluorescence intensity (excitation wavelength 340 nm and 380 nm, measurement wavelength 500 nm) is initiated at an interval of 2 seconds. After making measurements for about 30 seconds, 20 μl of the test sample from the sample plate is added to the cell plate, and measurements are further continued for 270 seconds. The Ca flux resulting from the test compound is calculated utilizing the difference between the maximum value of fluorescence intensity ratio at the wavelengths 340 nm and 380 nm after the addition of the test compound, and the fluorescence intensity ratio before the addition of the test compound, as the peak height.

[3] = tested on: rat under pentobarbital anesthesia; test: Test Example 9: effect on blood pressure and heart rate of rat under pentobarbital anesthesia; assay type: in vivo; conditions: 3 mg/kg intravenous, male SD rat, average value ± standard error of largest change
Method: Effect on Blood Pressure and Heart Rate of Rat Under Pentobarbital Anesthesia
The effect of intravenous bolus administration of a test compound exerted on the blood pressure and heart rate can be investigated by measuring the blood pressure and heart rate of a rat under pentobarbital anesthesia. 50 mg/kg of pentobarbital sodium (manufactured by Tokyo Chemical Industry Co., Ltd.) is intraperitoneally administered to a male SD rat (supplied by Japan SLC, Inc.) to induce anesthesia, and then 25 mg/kg of pentobarbital sodium is subcutaneously administered to maintain anesthesia. The left femoral vein is exposed and detached, and then a polyethylene tube SP10 (connected to a three-way stopcock via a ¼ vein needle) filled with physiological saline is inserted and placed in the vein.
The inner side of the left femur is incised, and the femoral artery is exposed and detached. A polyethylene tube (SP31, connected to a three-way stopcock via a Terumo injection needle 22G) filled with heparized physiological saline is inserted in the artery, and is connected to a pressure transducer. The blood pressure is measured from the pressure transducer through a pressure amplifier (AP-641G, Nihon Koden Corp.). The heart rate is measured by the Heart Rate Counter (AT-601G, Nihon Koden Corp.), using the pulse wave of the blood pressure as the trigger. The blood pressure, mean blood pressure and heart rate are outputted to a recorder and recorded. Here, the mean blood pressure is recorded by a pressure amplifier (AP-641G) according to the formula: {diastolic blood pressure+(systolic blood pressure−diastolic blood pressure)/3 }.
Measurement of the blood pressure and heart rate is initiated, and it is checked that the respective values are almost constant. 3 mg/kg of the test compound is administered through the left femoral vein for 30 seconds. Specifically, 3 mg/mL of the test compound is rapidly administered at a dose volume of 1 mL/kg. The relative values of the values of average blood pressure and heart rate at each time point with respect to the same values obtained before the initiation of administration, are determined for each individual, and the average value±standard error of the relative values (%) obtainable when each parameter changes the most, is determined.

[4] = Table 1, Test Example 4, read-out: α1A receptor EC50
[5] = Table 2, Test Example 4, read-out: α1A receptor EC50

| SMILES | Emax [1] [%] | EC50 [1] [µM] | EC50 [2] [µM] | Emax [2] [%] | EC50 [2, 4] [µM] | EC50 [2, 5] [µM] | α1A receptor I.A. ([2]; Table 2) [%] | increase in MBP (%) [3] [%] | EC50 ([2]; read-out: α1A receptor EC50, Table 2, Test Example 4) [µM] |
| --- | --- | --- | --- | --- | --- | --- | --- | --- | --- |
| CC(C)c1n[nH]c2cc(OCCNC[C@H](O)c3cccc(NS(C)(=O)=O)c3)ccc12 [Example 1, (R)-N-(3-(1-hydroxy-2-(2-(3-isopropylindazol-6-yloxy)ethylamino)ethyl)phenyl)methanesulfonamide] | 74 | 0.017 | > 2 | 8 | – | – | – | 4.7 ± 2.1 | – |
| CCCc1n[nH]c2cc(OCCNC[C@H](O)c3cccc(NS(C)(=O)=O)c3)ccc12 [Example 3, (R)-N-(3-(1-hydroxy-2-(2-(3-propylindazol-6-yloxy)ethylamino)ethyl)phenyl)methanesulfonamide] | – | – | – | 0 | > 2 | > 2 | 0 | 3.4 ± 3.7 | – |
| CCc1n[nH]c2cc(OCCNC[C@H](O)c3ccc(F)c(NS(C)(=O)=O)c3)ccc12 [Example 8, (R)-N-(5-(2-(2-(3-ethylindazol-6-yloxy)ethylamino)-1-hydroxyethyl)-2-fluorophenyl)methanesulfonamide] | 61 | 0.017 | – | 5 | – | > 2 | – | 0.4 ± 0.5 | – |
| CN(C)C(=O)CCc1n[nH]c2cc(OCCNC[C@H](O)c3cccc(NS(C)(=O)=O)c3)ccc12 [Example 5, (R)-3-(6-(2-(2-hydroxy-2-(3-(methylsulfonamido)phenyl)ethylamino)ethoxy)-indazol-3-yl)-N,N-dimethylpropanamide] | – | – | – | 47 | 0.836 | – | 47 | 3.4 ± 2.2 | – |
| COCc1n[nH]c2cc(OCCNC[C@H](O)c3cccc(NS(C)(=O)=O)c3)ccc12 [Example 6, (R)-N-(3-(1-hydroxy-2-(2-(3-methoxymethylindazol-6-yloxy)ethylamino)ethyl)phenyl)methanesulfonamide] | – | – | – | 20 | > 2 | – | – | 2.8 ± 1.1 | – |
| CS(=O)(=O)Nc1cccc([C@@H](O)CNCCOc2ccc3c(C(F)(F)F)n[nH]c3c2)c1 [Example 4, (R)-N-(3-(1-hydroxy-2-(2-(3-trifluoromethylindazol-6-yloxy)ethylamino)ethyl)phenyl)methanesulfonamide] | 78 | 0.049 | 0.892 | 40 | – | – | – | 3.1 ± 2.1 | – |
| CCc1n[nH]c2cc(OCCNC[C@H](O)c3cccc(NS(C)(=O)=O)c3)ccc12 [Example 2, (R)-N-(3-(1-hydroxy-2-(2-(3-ethylindazol-6-yloxy)ethylamino)ethyl)phenyl)methanesulfonamide] | 76 | 0.017 | 0.855 | 24 | – | – | 24 | 3.1 ± 0.5 | 0.855 |

More lines, main results first:

| Emax [1] [%] | EC50 [1] [µM] | EC50 [2] [µM] | Emax [2] [%] | EC50 [2, 4] [µM] | EC50 [2, 5] [µM] | α1A receptor I.A. ([2]; Table 2) [%] | SMILES | increase in MBP (%) [3] [%] | EC50 ([2]; read-out: α1A receptor EC50, Table 2, Test Example 4) [µM] |
| --- | --- | --- | --- | --- | --- | --- | --- | --- | --- |
| 58 | 0.029 | – | 11 | – | > 2 | – | CCc1n[nH]c2cc(OCCNC[C@H](O)c3ccc(Cl)c(NS(C)(=O)=O)c3)ccc12 [Example 9, (R)-N-(2-chloro-5-(2-(2-(3-ethylindazol-6-yloxy)ethylamino)-1-hydroxyethyl)phenyl)methanesulfonamide] | 1.7 ± 2.7 | – |
| 65 | 0.015 | – | 0 | – | > 2 | – | CS(=O)(=O)Nc1cc([C@@H](O)CNCCOc2ccc3c(C(F)(F)F)n[nH]c3c2)ccc1Cl [Example 11, (R)-N-(2-chloro-5-(1-hydroxy-2-(2-(3-(trifluoromethyl)indazol-6-yloxy)ethylamino)ethyl)phenyl)methanesulfonamide] | 1.8 ± 1.4 | – |
| 75 | 0.017 | – | 0 | – | > 2 | – | COc1n[nH]c2cc(OCCNC[C@H](O)c3cccc(NS(=O)(=O)c4ccccc4)c3)ccc12 [Example 16, (R)-N-(3-(1-hydroxy-2-(2-(3-methoxyindazol-6-yloxy)ethylamino)ethyl)phenyl)benzenesulfonamide] | 6.6 ± 3.2 | – |
